Data taken from patent US20170037125A1, “COMBINATION OF A PD-1 ANTAGONIST AND AN IDO1 INHIBITOR FOR TREATING CANCER” (INCYTE CORPORATION, priority 2014, published 2017).
Marks after values point to notes of the source that are not given here.

What was measured:
[1] = test system: selected advanced or metastatic solid tumors; assay: Phase 1 dose-escalation clinical study of INCB024360 in combination with MK-3475: tumor response (modified RECIST v1.1); type: in vivo, human; conditions: for CR, patients / NE (not evaluable), patients / PD, patients / PR, patients: preliminary
Procedure: Phase 1 of the study is a dose-escalation phase and Phase 2 is randomized, double-blind, and placebo-controlled. Phase 1 of the study is conducted in subjects with selected advanced or metastatic solid tumors. Phase 2 of the study is conducted in subjects with advanced NSCLC, e.g., Stage IIIB, IV, or recurrent NSCLC. […] The Phase 1 dose-escalation phase includes cohorts of subjects treated with INCB024360 twice daily (BID) at initial doses of 25 mg BID, 50 mg BID, and 100 mg BID in combination with MK-3475 at 2 mg/kg every 3 weeks. One treatment cycle consists of 21 days. A minimum of 3 subjects are enrolled and treated in each cohort, and all 3 subjects are observed for a minimum of 42 days (6 weeks) before the subsequent cohort begins enrollment. […] The study subject cohorts are summarized as follows: For treatment, INCB024360 is self-administered orally BID and continued BID during the 21-day cycle for an every-3-week dose schedule of MK-3475. The MTD of INCB024360 (or PAD) defined during Phase 1 is used for Phase 2. All BID doses are taken morning and evening, approximately 12 hours apart without respect to food. If a dose is missed by more than 4 hours, that dose is skipped and is resumed at the scheduled time. […] Study subject participation averages about 6 months. The Study Schedule and Procedures for the Phase 1/2 study are as follows: […] Liver function test monitoring occurs weekly during the first 6 weeks of study treatment during Phase 1 and then is tested every 3 weeks thereafter and in Phase 2 for subjects who remain on study treatment. Assessment of tumor size (by magnetic resonance imaging or computed tomography scan) is performed at screening or baseline (before beginning therapy), every 9 weeks for 18 months, and then every 12 weeks thereafter until disease progression. Disease progression is defined as progression confirmed by a second, consecutive assessment at least 4 weeks apart with the option for continuing treatment while awaiting radiologic confirmation of progression where feasible, and where subjects are clinically stable, defined as the following: absence of signs and symptoms (including worsening of laboratory values) indicating disease progression, no decline in ECOG performance status, absence of rapid progression of disease, and absence of progressive tumors at critical anatomical sites (e.g., cord compression) requiring urgent alternative medical intervention. […] In accordance with the protocol, INCB024360 was administered in combination with MK-3475. MK-3475 was intravenously administered at a dose of 2 mg/kg as described.

[2] = Phase 1 dose-escalation clinical study of INCB024360 in combination with MK-3475: adverse events; type: in vivo
Procedure: This Example describes an ongoing Phase 1/2 clinical study to evaluate the safety, tolerability and efficacy of the inventive combination of MK-3475 and INCB024360 in subjects presenting with various solid tumors and advanced non-small cell lung cancer (NSCLC). Phase 1 of the study is a dose-escalation phase and Phase 2 is randomized, double-blind, and placebo-controlled. Phase 1 of the study is conducted in subjects with selected advanced or metastatic solid tumors. Phase 2 of the study is conducted in subjects with advanced NSCLC, e.g., Stage IIIB, IV, or recurrent NSCLC. The dose-escalation phase (Phase 1) is open-label and is designed to identify the maximum tolerated dose (MTD) or pharmacologically acceptable doses (PAD) of INCB024360 in combination with MK-3475 in subjects with Stage IIIB, IV, or recurrent NSCLC, melanoma, transitional cell carcinoma of the genitourinary (GU) tract, renal cell cancer, triple negative breast cancer, adenocarcinoma of the endometrium or squamous cell carcinoma of the head and neck who have disease progression on at least 1 line of therapy for advanced or metastatic cancer.
The Phase 1 dose-escalation phase includes cohorts of subjects treated with INCB024360 twice daily (BID) at initial doses of 25 mg BID, 50 mg BID, and 100 mg BID in combination with MK-3475 at 2 mg/kg every 3 weeks. One treatment cycle consists of 21 days. A minimum of 3 subjects are enrolled and treated in each cohort, and all 3 subjects are observed for a minimum of 42 days (6 weeks) before the subsequent cohort begins enrollment. Additional subjects are enrolled in a cohort to achieve the minimum of 3 evaluable subjects if dropouts or dose interruptions or reductions occur that result in a subject being nonevaluable for dose limiting toxicities (DLTs). When the MTD or PAD is reached, additional subjects are enrolled for a total of 9 subjects, but the additional subjects are treated with MK-3475 at 200 mg every 3 weeks and the MTD or PAD of INCB024360 to further evaluate safety and confirm it as the recommended Phase 2 dose (RP2D). The study subject cohorts are summarized as follows:
For treatment, INCB024360 is self-administered orally BID and continued BID during the 21-day cycle for an every-3-week dose schedule of MK-3475. The MTD of INCB024360 (or PAD) defined during Phase 1 is used for Phase 2. All BID doses are taken morning and evening, approximately 12 hours apart without respect to food. If a dose is missed by more than 4 hours, that dose is skipped and is resumed at the scheduled time. MK-3475 is administered at 2 mg/kg or 200 mg intravenously (IV) over a 30-minute period on Day 1 of an every-3-week cycle, with no intrasubject dose escalation. Study subject participation averages about 6 months.
Primary endpoints of the Phase 1 study are as follows: Safety and tolerability are assessed by monitoring frequency, duration and severity of AEs, through physical examinations, by evaluating changes in vital signs and electrocardiograms, and through clinical laboratory blood and urine sample evaluations. Primary endpoints of the Phase 2 study are as follows: Progression-free survival, defined as the time from randomization until the earliest date of disease progression, as determined by investigator assessment of objective radiographic disease assessments per modified RECIST v1.1, or death due to any cause, if occurring sooner than progression. Imaging is archived for possible retrospective central confirmation of disease progression and response.
Table 4 below presents preliminary data of adverse events (AEs), including immune-related AEs, reported in the described study.

[3] = biological target: human indoleamine 2,3-dioxygenasae (IDO) (Homo sapiens, UniProt P14902); conditions: human IDO enzyme assay; see U.S. Pat. No. 8,088,803; cited from earlier work
Chain of human indoleamine 2,3-dioxygenasae (IDO) (P14902 whole entry): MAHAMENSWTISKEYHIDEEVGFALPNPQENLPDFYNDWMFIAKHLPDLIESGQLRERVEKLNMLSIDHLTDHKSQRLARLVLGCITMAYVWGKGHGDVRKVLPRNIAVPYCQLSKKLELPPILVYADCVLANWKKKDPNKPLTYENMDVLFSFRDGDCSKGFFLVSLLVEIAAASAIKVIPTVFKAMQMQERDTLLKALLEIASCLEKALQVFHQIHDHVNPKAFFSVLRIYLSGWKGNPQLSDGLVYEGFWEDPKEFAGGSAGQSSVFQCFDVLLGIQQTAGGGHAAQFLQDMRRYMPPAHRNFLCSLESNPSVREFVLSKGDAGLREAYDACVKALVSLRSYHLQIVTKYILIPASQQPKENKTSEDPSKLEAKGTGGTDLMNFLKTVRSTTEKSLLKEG

[4] = INCB024360 25 mg BID (n = 4) with MK-3475 2 mg/kg IV
[5] = INCB024360 50 mg BID (n = 4) with MK-3475 2 mg/kg IV
[6] = subjects evaluable for response, both cohorts, with MK-3475
[7] = Grade 3 or 4, 25 mg BID (n = 4)
[8] = Grade 3 or 4, 50 mg BID (n = 8)

NS(=O)(=O)NCCNc1nonc1C(=NO)Nc1ccc(F)c(Br)c1 [Compound 1, 4-({2-[(aminosulfonyl)amino]ethyl}amino)-N-(3-bromo-4-fluorophenyl)-N′-hydroxy-1,2,5-oxadiazole-3-carboximidamide]
response of a subject having melanoma (MEL) ([1]; 25 mg BID Cohort, stable, with MK-3475 2 mg/kg IV): stable disease (SD)
response of a subject having transitional cell carcinoma (TCC) in bladder ([1]; 25 mg BID Cohort, with MK-3475 2 mg/kg IV): partial response (PR)
response of a subject with melanoma (MEL) ([1]; 50 mg BID Cohort, first melanoma subject, with MK-3475 2 mg/kg IV): complete response (CR)
response of a subject with melanoma (MEL) ([1]; 50 mg BID cohort, further melanoma subject, with MK-3475 2 mg/kg IV): partial response (PR)
total best overall response (per modified RECIST v1.1) ([1]; 25 and 50 mg BID cohorts pooled, only subjects evaluable for response (5/7), with MK-3475): 71%
disease control rate ([1]; 25 and 50 mg BID cohorts pooled, only subjects evaluable for response (7/7), with MK-3475): 100%
CR, patients [1, 4]: 0 n (%)
NE (not evaluable), patients [1, 4]: 0 n (%)
PD, patients [1, 4]: 0 n (%)
PR, patients [1, 4]: 2 (50%) n (%)
CR, patients [1, 5]: 1 (33%) n (%)
NE (not evaluable), patients [1, 5]: 1** n (%)
PD, patients [1, 5]: 0 n (%)
PR, patients [1, 5]: 2 (67%) n (%)
Disease Control Rate (DCR) [1, 6]: 7/7
Objective response rate (ORR) [1, 6]: 4/7
Grade 3 rash related to dose limiting toxicity (DLT) ([2]; 50 mg BID cohort): one
Cough (AE) ([2]; All Grades, 25 mg BID (n = 4)): 2 n (%)
DVT (IJ) (AE; Deep Vein Thrombosis, Internal Jugular) ([2]; All Grades, 25 mg BID (n = 4)): 1 n (%)
Diarrhea (AE) ([2]; All Grades, 25 mg BID (n = 4)): 2 n (%)
Dyspnea (AE) ([2]; All Grades, 25 mg BID (n = 4)): 1 n (%)
Fall (AE) ([2]; All Grades, 25 mg BID (n = 4)): 0 n (%)
Fatigue (AE) ([2]; All Grades, 25 mg BID (n = 4)): 0 n (%)
Headache (AE) ([2]; All Grades, 25 mg BID (n = 4)): 1 n (%)
Mild Infusion Reaction (AE) ([2]; All Grades, 25 mg BID (n = 4)): 0 n (%)
Nausea (AE) ([2]; All Grades, 25 mg BID (n = 4)): 2 n (%)
Pruritis (AE) ([2]; All Grades, 25 mg BID (n = 4)): 1 n (%)
Rash (AE) ([2]; All Grades, 25 mg BID (n = 4)): 0 n (%)
Cough (AE) ([2]; All Grades, 50 mg BID (n = 8)): 0 n (%)
DVT (IJ) (AE; Deep Vein Thrombosis, Internal Jugular) ([2]; All Grades, 50 mg BID (n = 8)): 0 n (%)
Diarrhea (AE) ([2]; All Grades, 50 mg BID (n = 8)): 0 n (%)
Dyspnea (AE) ([2]; All Grades, 50 mg BID (n = 8)): 0 n (%)
Fall (AE) ([2]; All Grades, 50 mg BID (n = 8)): 1 n (%)
Fatigue (AE) ([2]; All Grades, 50 mg BID (n = 8)): 1 n (%)
Headache (AE) ([2]; All Grades, 50 mg BID (n = 8)): 0 n (%)
Mild Infusion Reaction (AE) ([2]; All Grades, 50 mg BID (n = 8)): 1 n (%)
Nausea (AE) ([2]; All Grades, 50 mg BID (n = 8)): 1 n (%)
Pruritis (AE) ([2]; All Grades, 50 mg BID (n = 8)): 0 n (%)
Rash (AE) ([2]; All Grades, 50 mg BID (n = 8)): 2 n (%)
Cough (AE) ([2]; All Grades, Total (N = 12)): 2 n (%)
DVT (IJ) (AE; Deep Vein Thrombosis, Internal Jugular) ([2]; All Grades, Total (N = 12)): 1 n (%)
Diarrhea (AE) ([2]; All Grades, Total (N = 12)): 2 n (%)
Dyspnea (AE) ([2]; All Grades, Total (N = 12)): 1 n (%)
Fall (AE) ([2]; All Grades, Total (N = 12)): 1 n (%)
Fatigue (AE) ([2]; All Grades, Total (N = 12)): 1 n (%)
Headache (AE) ([2]; All Grades, Total (N = 12)): 1 n (%)
Mild Infusion Reaction (AE) ([2]; All Grades, Total (N = 12)): 1 n (%)
Nausea (AE) ([2]; All Grades, Total (N = 12)): 3 n (%)
Pruritis (AE) ([2]; All Grades, Total (N = 12)): 1 n (%)
Rash (AE) ([2]; All Grades, Total (N = 12)): 2 n (%)
Cough (AE) [2, 7]: 0 n (%)
DVT (IJ) (AE; Deep Vein Thrombosis, Internal Jugular) [2, 7]: 0 n (%)
Dyspnea (AE) [2, 7]: 0 n (%)
Fall (AE) [2, 7]: 0 n (%)
Fatigue (AE) [2, 7]: 0 n (%)
Headache (AE) [2, 7]: 0 n (%)
Mild Infusion Reaction (AE) [2, 7]: 0 n (%)
Nausea (AE) [2, 7]: 0 n (%)
Pruritis (AE) [2, 7]: 0 n (%)
Rash (AE) [2, 7]: 0 n (%)
Cough (AE) [2, 8]: 0 n (%)
DVT (IJ) (AE; Deep Vein Thrombosis, Internal Jugular) [2, 8]: 0 n (%)
Dyspnea (AE) [2, 8]: 0 n (%)
Fatigue (AE) [2, 8]: 0 n (%)
Headache (AE) [2, 8]: 0 n (%)
Mild Infusion Reaction (AE) [2, 8]: 0 n (%)
Nausea (AE) [2, 8]: 0 n (%)
Pruritis (AE) [2, 8]: 0 n (%)
Rash (AE) [2, 8]: 1 n (%)
Fall (AE) ([2]; Grade 3 or 4, 50 mg BID (n = 8), not related to study treatment): 1 n (%)
Cough (AE) ([2]; Grade 3 or 4, Total (N = 12)): 0 n (%)
DVT (IJ) (AE; Deep Vein Thrombosis, Internal Jugular) ([2]; Grade 3 or 4, Total (N = 12)): 0 n (%)
Dyspnea (AE) ([2]; Grade 3 or 4, Total (N = 12)): 0 n (%)
Fall (AE) ([2]; Grade 3 or 4, Total (N = 12)): 1 n (%)
Fatigue (AE) ([2]; Grade 3 or 4, Total (N = 12)): 0 n (%)
Headache (AE) ([2]; Grade 3 or 4, Total (N = 12)): 0 n (%)
Mild Infusion Reaction (AE) ([2]; Grade 3 or 4, Total (N = 12)): 0 n (%)
Nausea (AE) ([2]; Grade 3 or 4, Total (N = 12)): 0 n (%)
Pruritis (AE) ([2]; Grade 3 or 4, Total (N = 12)): 0 n (%)
Rash (AE) ([2]; Grade 3 or 4, Total (N = 12)): 1 n (%)

NS(=O)(=O)NCCNc1nonc1C(=NO)Nc1ccc(F)c(C(F)(F)F)c1 [Compound 3, 4-({2-[(aminosulfonyl)amino]ethyl}amino)-N-[4-fluoro-3-(trifluoromethyl)phenyl]-N′-hydroxy-1,2,5-oxadiazole-3-carboximidamide]
IC50 [3]: < 100 nM
